The values below come from US20240115670A1, “FIBROBLAST ACTIVATION PROTEIN MODULATION TO ALTER IMMUNE CELL MIGRATION AND TUMOR INFILTRATION” (Georgetown University, priority 2021, published 2024).

Each structure is given as a SMILES string. “Also recorded” adds a separate entry of the source.

One data set deals with PANC-1 cells. As to the kind of experiment: NK cell lysis of PANC-1 cells in 2D cocultures. It counts as cell-based, human.
The next data set has as its system NK92-GFP cells. Nature of the data set: NK92-GFP extravasation from zebrafish blood vessels. It is filed as in vivo. To be noted: fish bathed in 10 uM Cpd60 vs vehicle; 1 hour after injection. The procedure: The zebrafish embryos were anesthetized with 0.0003016% tricaine (Pentair Aquatic Eco-Systems, Sigma-Aldrich, St. Louis, MO, USA) in the Georgetown-Lombardi Animal Shared Resource and positioned within our zebrafish stereotax on a proprietary microinjection plate. NK92-GFP cells were injected into the pericardium using an air driven Picospritzer Ha microinjector (General Valve/Parker Hannifin) under a stereoscope. After transplantation, embryos were allowed to recover for 1 hour at 33° C. Confocal imaging was performed on an Olympus IX-71 inverted microscope with a color CCD camera in the Georgetown-Lombardi Microscopy Shared Resource. Fluorescent imaging was performed on Keyence BZ-X. Images were taken at 10× across multiple z-stacks. […] NK extravasation quantification was performed by counting the number of GFP cells outside red vasculature. NK extravasation quantification was performed blinded to the treatment conditions. […]
Zebrafish studies were conducted in accordance with NIH guidelines for the care and use of laboratory animals and were approved by the Georgetown University Institutional Animal Care and Use Committee. […] NK extravasation quantification was performed by counting the number of GFP cells outside red vasculature. NK extravasation quantification was performed blinded to the treatment conditions. […]

The target of the next data set is T1, DPPIV (Homo sapiens, UniProt P27487).
T1 construct: purchased R&D systems 9168-SE
Nature of the data set: Fluorescent peptide dipeptidyl peptidase activity assay. It is filed as biochemical. To be noted: fluorescent peptide substrate. The procedure: (§1) 100 mM stock of dipeptidyl peptidase substrate (Acetyl-Aka-Gly-Pro-AFC) (Anaspec, cat #AS-24126) was made by resuspending lyophilized substrate in DMSO. On the day of the assay, substrate stock was then diluted 1:1000 in activity assay buffer (50 mM Tris, 1 M NaCl, 1 mg/mL BSA, pH 7.5). A standard curve was generated using rFAP (R&D systems, cat #3715-SE-010) or rDPP4 (R&D systems, cat #9168-SE) and 50 uL of recombinant protein plus 50 uL of substrate was added to each well of a 96 Well Flat Clear Bottom White Polystyrene TC-Treated Microplates (Corning, cat #3903). The plate was incubated for 30 minutes at 37° C. then read on a PerkinElmer EnVision Multimode Plate Reader with 390-400 nm excitation and […] emission wavelengths. To test tumor lysates, 50-100 mg of snap frozen tumors were homogenized in 100-300 uL activity assay buffer using a Kimble Biomasher II closed system tissue grinder (DWK Life Sciences, cat #749625-0020). Protein concentration was determined using Bio-rad protein concentration DC Protein Assay Kit II (Bio-rad, cat #5000112). All samples were diluted to equal protein concentrations using activity assay buffer then added at 50 uL plus 50 uL substrate per well. Final concentration of FAP per well was calculated using the standard curve. Data were compiled and assessed for significance using GraphPad Prism 9 for an unpaired, two-tailed t-test.

Data set [1] deals with T2, FAP (Homo sapiens, UniProt Q12884).
T2 construct: purchased R&D systems 3715-SE-010
Described as above. It counts as biochemical. The following applies: fluorescent peptide substrate. The procedure:
as §1

The test system of data set [2] is FAP. To be noted: mouse, in vivo; cited from earlier work.

T2 sequence (Q12884 whole entry): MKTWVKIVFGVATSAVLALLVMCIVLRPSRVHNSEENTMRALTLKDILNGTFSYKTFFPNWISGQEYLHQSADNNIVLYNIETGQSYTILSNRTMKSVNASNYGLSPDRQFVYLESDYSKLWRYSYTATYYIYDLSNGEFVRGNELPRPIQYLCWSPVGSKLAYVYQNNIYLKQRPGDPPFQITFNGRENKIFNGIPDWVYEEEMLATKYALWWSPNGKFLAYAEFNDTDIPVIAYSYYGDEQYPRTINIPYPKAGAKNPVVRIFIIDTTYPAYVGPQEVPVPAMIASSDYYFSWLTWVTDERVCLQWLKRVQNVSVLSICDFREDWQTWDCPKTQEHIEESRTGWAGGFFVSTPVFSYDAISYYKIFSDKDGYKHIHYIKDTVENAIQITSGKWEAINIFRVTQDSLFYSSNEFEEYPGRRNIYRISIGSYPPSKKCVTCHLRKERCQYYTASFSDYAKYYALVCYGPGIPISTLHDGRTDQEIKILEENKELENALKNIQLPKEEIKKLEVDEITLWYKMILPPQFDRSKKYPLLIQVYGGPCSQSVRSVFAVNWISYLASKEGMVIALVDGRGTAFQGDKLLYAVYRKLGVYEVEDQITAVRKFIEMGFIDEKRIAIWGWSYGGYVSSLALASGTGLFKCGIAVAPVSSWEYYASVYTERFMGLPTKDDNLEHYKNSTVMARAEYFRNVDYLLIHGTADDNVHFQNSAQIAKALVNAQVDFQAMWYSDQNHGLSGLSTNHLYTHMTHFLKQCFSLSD
T1 sequence (P27487 whole entry): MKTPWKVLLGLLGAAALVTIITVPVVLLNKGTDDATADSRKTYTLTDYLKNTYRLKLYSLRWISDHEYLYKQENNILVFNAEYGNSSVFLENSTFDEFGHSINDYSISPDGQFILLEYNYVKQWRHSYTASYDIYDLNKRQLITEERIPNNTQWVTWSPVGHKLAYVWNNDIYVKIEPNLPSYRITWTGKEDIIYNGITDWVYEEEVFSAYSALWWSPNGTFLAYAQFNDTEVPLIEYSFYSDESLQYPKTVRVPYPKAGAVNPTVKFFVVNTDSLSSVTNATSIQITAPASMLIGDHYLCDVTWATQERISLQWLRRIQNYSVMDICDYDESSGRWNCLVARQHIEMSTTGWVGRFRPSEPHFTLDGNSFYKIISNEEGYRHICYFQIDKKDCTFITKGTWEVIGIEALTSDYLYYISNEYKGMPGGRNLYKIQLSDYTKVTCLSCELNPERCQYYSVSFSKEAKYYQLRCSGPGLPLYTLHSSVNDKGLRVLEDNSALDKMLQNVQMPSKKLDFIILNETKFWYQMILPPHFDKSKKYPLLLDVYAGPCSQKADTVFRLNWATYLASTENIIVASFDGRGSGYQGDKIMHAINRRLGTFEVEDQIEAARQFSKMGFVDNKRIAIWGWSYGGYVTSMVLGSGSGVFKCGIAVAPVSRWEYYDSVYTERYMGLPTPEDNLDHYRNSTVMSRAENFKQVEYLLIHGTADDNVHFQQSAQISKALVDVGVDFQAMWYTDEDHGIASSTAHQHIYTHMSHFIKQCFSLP

In the case of `N#C[C@@H]1CC(F)(F)CN1C(=O)CNC(=O)c1ccnc2ccccc12` [Cpd60], the “PANC-1 cell apoptosis in 2D cell cocultures with NK92” value with PANC-1 cells was “no effect”. Also, the “NK cell extravasation from the blood vessels” value in the data set on NK92-GFP cells is “significantly reduced”. Further, the “effect on NK cell viability” value in the data set on NK cell line is “no effect”. In addition, on DPPIV, the “inhibition of DPPIV dipeptidyl peptidase activity” value was “but not FAP's most closely related protein, DPPIV; also recorded: not DPPIV”. Moreover, the “inhibition of FAP dipeptidyl peptidase activity” value against FAP [1] was “inhibits FAP”. Moreover, the “FAP inhibition in murine models” value in the data set with FAP [2] is “selectively and completely inhibits FAP”.
